{"source": "paper PMC7615676", "about": "“Short-course combination treatment for experimental chronic Chagas disease” (Science translational medicine, 2023)", "key": {"[1]": {"tested_on": "HepG2 cells", "assay": "Seahorse MST (mitochondrial stress test), oxygen consumption rate", "assay_type": "cell-based", "conditions": "lowest concentration reducing OCR >15% vs DMSO", "description": "To measure the Oxygen Consumption Rate (OCR) in cells following compound treatment, the Seahorse XFe96 Extracellular Flux Analyser (Agilent) was used ([69]). HepG2 cells were maintained in DMEM medium (Invitrogen #11966-025) supplemented with 10 mM galactose, 1 mM sodium pyruvate, 5 mM HEPES, 2 mM GlutaMAX, 10% fetal bovine serum and 50 μg/ml gentamycin. Cells were maintained in a 37 °C, 5% CO2 humidified atmosphere. The measurement of OCR was performed as previously described ([70], [71]) with minor modifications. Briefly, HepG2 cells were seeded in an XF96-well plate at 14000 cells per 100 μl cell culture medium per well and incubated in a 37 °C, 5% CO2 humidified atmosphere for 24 hours. Following incubation, the culture medium was replaced with 175 μl pre-warmed, serum-free XF base assay medium (Agilent), supplemented with 2 mM L-glutamine, 1 mM sodium pyruvate and 10 mM galactose (pH 7.4) and incubated at 37 °C for one hour. Test compounds (compound 3 and 4) were maintained in DMSO and a four-point dose response (final concentrations 10, 20, 40 and 80 μM), plus 0.4% DMSO control, were diluted to 8× concentration in XF assay medium and 25 μL was loaded into Port A of the XF Assay Cartridge. The mito-stress test components oligomycin (1 μM final), carbonyl cyanide-4-(trifluoromethoxy)-phenylhydrazon [FCCP] […]"}, "[2]": {"tested_on": "chronic T. cruzi infection (CL Brener) in BALB/c mice", "parameters": "method as in PMID 27748443", "conditions": "cited from earlier work"}, "[3]": {"parameters": "method as in PMID 21073628, PMID 20932171", "conditions": "patients; cited from earlier work"}}, "data": [{"compound": "COc1cc(Cl)ccc1-c1c(C)[nH]c2nc(N)nc(C)c12", "note": "[Compound 3, 5-(4-Chloro-2-methoxyphenyl)-4,6-dimethyl-7H-pyrrolo[2,3-d]pyrimidin-2-amine]", "values": [{"measurement": "Seahorse MST, HepG2, LEC", "setting": "[1]", "value": 80, "unit": "µM"}]}, {"compound": "O=C(Cn1ccnc1[N+](=O)[O-])NCc1ccccc1", "note": "[Benznidazole, reference compound]", "values": [{"measurement": "minimum efficacious dose in a five-day chronic study", "setting": "[2]", "value": 100, "unit": "mg/kg"}, {"measurement": "discontinuation of treatment prior to completion due to adverse side-effects", "setting": "[3]", "value": "up to 29%"}]}, {"compound": "COc1ccc(-c2c(C)[nH]c3nc(N)nc(C)c23)c(OC)c1", "note": "[Compound 4, 5-(2,4-Dimethoxyphenyl)-4,6-dimethyl-7H-pyrrolo[2,3-d]pyrimidin-2-amine]", "values": [{"measurement": "Seahorse MST, HepG2, LEC", "setting": "[1]", "value": ">80", "unit": "µM"}]}]}
